Assay results taken from ChEMBL document CHEMBL1146862, “Synthesis of trifluoromethylaryl diazirine and benzophenone derivatives of etomidate that are potent general anesthetics and effective photolabels for probing sites on ligand-gated ion channels” (J Med Chem, 2006).
Calls of active or inactive are those of the source. The rule behind the calls is not given here.

What was measured:
[1] = biological target: T1, GABA-A receptor; anion channel (Homo sapiens) (UniProt P14867+P47870+P18507+P28472+P48169+Q99928+Q9UN88+P34903+O00591+O14764+Q8N1C3+P18505+P78334+P47869+P31644+Q16445); assay: Enhancement of [3H]flunitrazepam binding to cerebral cortex GABA-A receptor at 1 uM; type: tissue-based
Xenopus sp. = assay: Anesthetic activity in Xenopus tadpole measured as loss of righting reflex; type: functional, organism-based
[2] = biological target: T2, GABA-A receptor; alpha-1/beta-2/gamma-2 (Homo sapiens) (UniProt P14867+P47870+P18507); assay: Enhancement of current in Xenopus laevis oocytes expressing human GABA-Alpha1 receptor plus beta-2-gamma-2L upto 1 uM; type: functional, cell-based; details: Oocyte
[3] = biological target: T3, Serotonin 3 (5-HT3) receptor (Homo sapiens) (UniProt P46098+A5X5Y0+O95264+Q70Z44+Q8WXA8); assay: Inhibition of 5HT3 receptor at 0.7 uM; type: protein-complex assay
[4] = biological target: T1, GABA-A receptor; anion channel (Homo sapiens); assay: Enhancement of [3H]flunitrazepam binding to cerebral cortex GABA-A receptor at >=0.3 uM; type: tissue-based
[5] = biological target: T1, GABA-A receptor; anion channel (Homo sapiens); assay: Reduction of [3H]flunitrazepam binding to cerebral cortex GABA-A receptor at 100 uM relative to control; type: tissue-based; set-up: scale not given: the % may be the effect or the level left
[6] = biological target: T3, Serotonin 3 (5-HT3) receptor (Homo sapiens); assay: Inhibition of 5HT3 receptor at 2.2 uM; type: protein-complex assay
[7] = biological target: Acetylcholine receptor subunit alpha (Torpedo californica) (UniProt P02710); assay: Photolabeling of Torpedo californica alpha nAChR in presence of agonist relative to in absence of agonist; type: functional; details: Tetronarce californica
[8] = biological target: T1, GABA-A receptor; anion channel (Homo sapiens); assay: Enhancement of [3H]flunitrazepam binding to cerebral cortex GABA-A receptor at 0.1 uM; type: tissue-based
[9] = biological target: T2, GABA-A receptor; alpha-1/beta-2/gamma-2 (Homo sapiens); assay: Enhancement of current in Xenopus laevis oocytes expressing human GABA-Alpha1 receptor plus beta-2-gamma-2L upto 10 uM; type: functional, cell-based; details: Oocyte
[10] = biological target: T3, Serotonin 3 (5-HT3) receptor (Homo sapiens); assay: Inhibition of 5HT3 receptor at 0.22 uM; type: protein-complex assay
[11] = biological target: T4, Acetylcholine receptor subunit delta (Torpedo californica) (UniProt P02718); assay: Photolabeling of Torpedo californica delta nAChR in presence of agonist relative to in absence of agonist; type: functional; details: Tetronarce californica
T4 sequence (whole entry): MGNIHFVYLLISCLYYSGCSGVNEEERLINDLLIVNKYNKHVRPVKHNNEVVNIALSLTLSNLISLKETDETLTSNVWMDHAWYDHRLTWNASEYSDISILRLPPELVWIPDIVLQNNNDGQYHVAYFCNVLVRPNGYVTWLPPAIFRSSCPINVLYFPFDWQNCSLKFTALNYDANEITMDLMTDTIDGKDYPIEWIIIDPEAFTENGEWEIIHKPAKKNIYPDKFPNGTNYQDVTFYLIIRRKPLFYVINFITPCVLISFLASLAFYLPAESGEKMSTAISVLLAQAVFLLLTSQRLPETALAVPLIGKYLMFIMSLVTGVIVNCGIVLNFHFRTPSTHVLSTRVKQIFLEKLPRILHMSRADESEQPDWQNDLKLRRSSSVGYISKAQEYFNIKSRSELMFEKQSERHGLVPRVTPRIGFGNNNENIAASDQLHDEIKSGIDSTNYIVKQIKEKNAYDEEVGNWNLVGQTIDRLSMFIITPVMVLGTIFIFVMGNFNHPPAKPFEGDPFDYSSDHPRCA

[12] = biological target: T3, Serotonin 3 (5-HT3) receptor (Homo sapiens); assay: Inhibition of 5HT3 receptor at 2.3 uM; type: protein-complex assay
[13] = biological target: T1, GABA-A receptor; anion channel (Homo sapiens); assay: Enhancement of [3H]flunitrazepam binding to cerebral cortex GABA-A receptor at >=1 uM; type: tissue-based

Acetylcholine receptor subunit alpha (Torpedo californica), sequence (P02710 whole entry): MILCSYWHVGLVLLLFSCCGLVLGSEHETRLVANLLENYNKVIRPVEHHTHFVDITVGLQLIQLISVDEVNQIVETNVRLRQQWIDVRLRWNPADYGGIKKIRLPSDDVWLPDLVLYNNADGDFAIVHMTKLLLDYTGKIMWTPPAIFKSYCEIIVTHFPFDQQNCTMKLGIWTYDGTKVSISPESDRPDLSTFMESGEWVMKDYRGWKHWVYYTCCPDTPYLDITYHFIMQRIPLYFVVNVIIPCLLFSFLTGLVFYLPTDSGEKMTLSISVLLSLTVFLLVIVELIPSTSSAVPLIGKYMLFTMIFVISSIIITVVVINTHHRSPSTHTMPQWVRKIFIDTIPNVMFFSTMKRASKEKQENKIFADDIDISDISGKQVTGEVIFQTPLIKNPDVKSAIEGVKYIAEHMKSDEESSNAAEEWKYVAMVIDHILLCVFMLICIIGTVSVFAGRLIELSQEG

C[C@H](c1ccccc1)n1cncc1C(=O)OCc1ccc(C2(C(F)(F)F)N=N2)cc1
Activity [1]: Active
EC50 (Xenopus sp.): 700 nM
Activity [2]: inactive
inhibition [3]: < 10%

CC(c1ccccc1)n1cncc1C(=O)OCCC1(C)N=N1 (stereo not drawn) [AZIETOMIDATE]
Activity [4]: Active
Activity [5]: 115%
EC50 (Xenopus sp.): 2200 nM
inhibition [6]: 8%

CCCC(C(=O)OCCN(CC)CC)(c1ccccc1)c1ccccc1
Activity [7]: 70%

C[C@H](c1ccccc1)n1cncc1C(=O)OCc1ccc(C(=O)c2ccccc2)cc1
Activity [8]: Active
EC50 (Xenopus sp.): 220 nM
Activity [9]: inactive
inhibition [10]: < 10%

C[N+](C)(C)CCOC(N)=O
Activity [11]: 60%

CCOC(=O)c1cncn1[C@H](C)c1ccccc1 [ETOMIDATE]
Activity [5]: 78.5%
EC50 (Xenopus sp.): 2300 nM
inhibition [12]: 11%
Activity [13]: Active
